In patent US9468212B2, “Antifungal compositions” (DSM IP ASSETS B.V., priority 2013, dated 2016):
“And” between values parts separate entries of the source, which are not always exact repeats. Equal values may be shown once.

Legend:
[1] = system: Penicillium italicum; assay: Treatment of oranges: wounded, inoculated with Penicillium italicum, wound treated with antifungal composition (Examples 7-9); format: in vivo; conditions: 500 ppm natamycin, 400 ppm fenpiclonil or both, oranges, 20° C.
Method: The expected antifungal activity (E in %) of the combined antifungal composition comprising both active ingredients was calculated according to the Colby equation (Colby, 1967): E=X+Y−[(X·Y)/100] wherein X and Y are the observed antifungal activities (in %) of the individual active ingredients X and Y, respectively.
Eight fresh, organic oranges were used per treatment. Each orange was soaked in a 180 ppm hypochlorite solution for 10 minutes, then rinsed thoroughly with fresh tap water and dried. The peel of each disinfected orange was wounded once using a cork borer according to the method described by de Lapeyre de Bellaire and Dubois (1987). Subsequently, each wound was inoculated with 10 μl of a Penicillium italicum suspension containing 5×10^5 of spores/ml. After incubation for 3 hours at 20° C., each wound and the orange peel area of 1 cm around the wound was treated with in total […] of a freshly prepared aqueous antifungal composition comprising either 500 ppm natamycin (DSM Food Specialties, Delft, The Netherlands), 300 ppm fludioxonil or both. Each antifungal composition also comprised 3.2% (w/w) beeswax, 0.8% (w/w) glycerol, 0.7% (w/w) polyoxyethylene sorbitan monostearate (Tween 60), 0.1% (w/w) polyoxyethylene sorbitan monooleate (Tween 80), 0.05% (w/w) methylhydroxyethyl-cellulose (MHEC), 0.03% (w/w) anti-foaming agent, 0.02% (w/w) xanthan gum, 0.02% (w/w) citric acid, 0.01% (w/w) lactic acid and 0.01% potassium sorbate. A composition without natamycin or fludioxonil was used as control.
The treated oranges were incubated in a closed box in the dark at 20° C. and assessed on mould growth during a 27-day incubation period.
The experiment was conducted as described in Example 7, except for the fact that each wounded and inoculated orange was treated with 150 μl of a freshly prepared aqueous antifungal composition comprising either 250 ppm natamycin (DSM Food Specialties, Delft, The Netherlands), 100 ppm fludioxonil or both. During incubation, the treated oranges were assessed on mould growth according to the two methods described in Example 5.
The experiment was conducted as described in Example 7, except for the fact that each wounded and inoculated orange was treated with 150 μl of a freshly prepared aqueous antifungal composition comprising either 500 ppm natamycin (DSM Food Specialties, Delft, The Netherlands), 400 ppm fenpiclonil or both. During a 23-day incubation period, the treated oranges were assessed on mould growth according to the two methods described in Example 5.

[2] = system: Botrytis cinerea; assay: Treatment of sweet peppers: wounded, inoculated with Botrytis cinerea, wound treated with antifungal composition (Example 10); format: in vivo; conditions: 400 ppm natamycin, 600 ppm fenpiclonil or both, 20° C.
Method: Ten fresh, organic sweet peppers were used per treatment. The peel of each sweet pepper was wounded once using a cork borer according to the method described by de Lapeyre de Bellaire and Dubois (1987). Subsequently, each wound was inoculated with 10 μl of a Botrytis cinerea suspension containing 1×10^5 of spores/ml. After incubation for 3 hours at 20° C., each wound and the skin area of 0.5 cm around the wound was treated with in total 75 μl of a freshly prepared aqueous antifungal composition comprising either 400 ppm natamycin (DSM Food Specialties, Delft, The Netherlands), 600 ppm fenpiclonil or both. Each antifungal composition also comprised 3.2% (w/w) beeswax, 0.8% (w/w) glycerol, 0.7% (w/w) polyoxyethylene sorbitan monostearate (Tween 60), 0.2% (w/w) polyoxyethylene sorbitan monooleate (Tween 80), 0.05% (w/w) methylhydroxyethyl-cellulose (MHEC), 0.03% (w/w) anti-foaming agent, 0.02% (w/w) xanthan gum, 0.02% (w/w) citric acid, 0.01% (w/w) lactic acid and 0.01% potassium sorbate. A composition without natamycin or fenpiclonil was used as control.
The treated sweet peppers were incubated in a closed box in the dark at 20° C. and assessed on mould growth during incubation. The antifungal activity (in %) of the individual and combined active ingredients was determined by calculating the reduction in mould growth observed on the sweet peppers treated with the antifungal composition in comparison to the mould growth on the sweet peppers treated with the control composition according to the Colby method (Colby, 1967) as described in Example 5.

SMILES: N#Cc1c[nH]cc1-c1cccc(Cl)c1Cl [Fenpiclonil, fenpiclonil]
- Observed antifungal activity O (%) ([1]; 22-23 days): 0%
- Observed antifungal activity O (%) ([1]; 12 days): 78%
- Observed antifungal activity O (%) ([1]; 13 days): 70%
- Observed antifungal activity O (%) ([1]; 14 days): 66%
- Observed antifungal activity O (%) ([1]; 15 days): 59%
- Observed antifungal activity O (%) ([1]; 16 days): 47%
- Observed antifungal activity O (%) ([1]; 18 days): 28%
- Observed antifungal activity O (%) ([1]; 19 days): 17%
- Observed antifungal activity O (%) ([1]; 20 days): 6%
- Observed antifungal activity O (%) ([1]; 21 days): 3%
- Number of moulded oranges/total number of 8 oranges ([1]; Day 14-15): 6 and 6/8
- Number of moulded oranges/total number of 8 oranges ([1]; Day 16): 8 and 8/8
- Number of moulded oranges/total number of 8 oranges ([1]; Day 18): 8 and 8/8
- Number of moulded oranges/total number of 8 oranges ([1]; Day 19-23): 8 and 8/8
- Observed antifungal activity O (%) ([2]; 47 days): 0%
- Observed antifungal activity O (%) ([2]; 48 days): 0%
- Observed antifungal activity O (%) ([2]; 49 days): 0%
- Observed antifungal activity O (%) ([2]; 50 days): 0%
